ChEMBL document CHEMBL1128927, “Synthesis and biological activities of [N-MeLeu5] didemnin B” (Bioorg Med Chem Lett, 1996)

Experiments:
Format in all cases: functional
Oryctolagus cuniculus = species: Oryctolagus cuniculus; experiment: In vitro inhibition of protein synthesis in rabbit reticulocyte lysates.
A549 = experiment: Compound was evaluated for cytotoxic activity against non-small lung cancer A549/ATCC cell lines.; settings: Homo sapiens, read-out: LC50 (the source's name)
HT-29 = experiment: Compound was evaluated for cytotoxic activity against colon cancer HT-29 cell lines.; settings: Homo sapiens, read-out: LC50 (the source's name)
RXF 393 = experiment: Compound was evaluated for cytotoxic activity against renal cancer RXF-393 cell lines.; settings: Homo sapiens, read-out: LC50 (the source's name)
SK-MEL-5 = experiment: Compound was evaluated for cytotoxic activity against melanoma Sk-MEL-5 cell lines.; settings: Homo sapiens, read-out: LC50 (the source's name)
SNB-75 = experiment: Compound was evaluated for cytotoxic activity against CNS cancer SNB-75 cell lines.; settings: Homo sapiens, read-out: LC50 (the source's name)

| SMILES | IC50 (Oryctolagus cuniculus) [nM] | CC50 (A549) [nM] | CC50 (HT-29) [nM] | CC50 (RXF 393) [nM] | CC50 (SK-MEL-5) [nM] | CC50 (SNB-75) [nM] |
| --- | --- | --- | --- | --- | --- | --- |
| CC[C@H](C)[C@H]1NC(=O)[C@@H](NC(=O)[C@@H](CC(C)C)N(C)C(=O)[C@@H]2CCCN2C(=O)[C@H](C)O)[C@@H](C)OC(=O)[C@H](CC(C)C)N(C)C(=O)[C@@H]2CCCN2C(=O)[C@H](CC(C)C)NC(=O)[C@@H](C)C(=O)[C@H](C(C)C)OC(=O)C[C@@H]1O [listing 1 of 2 here] | 9000 |  |  |  |  |  |
| CC[C@H](C)[C@H]1NC(=O)[C@@H](NC(=O)[C@@H](CC(C)C)N(C)C(=O)[C@@H]2CCCN2C(=O)[C@H](C)O)[C@@H](C)OC(=O)[C@H](CC(C)C)N(C)C(=O)[C@@H]2CCCN2C(=O)[C@H](CC(C)C)NC(=O)[C@@H](C)C(=O)[C@H](C(C)C)OC(=O)C[C@@H]1O [listing 2 of 2 here] |  | > 25000 | 445 | 258 | 79.9 | 399 |
